Experimental data reported in patent US20250213560A1, “NITROGEN-CONTAINING HETEROCYCLIC COMPOUNDS HAVING PHENYL GROUP AND USES THEREOF” (BNH RESEARCH CO., LTD., priority 2022, published 2025).

What was measured:
[1] = tested on: GluN2B; experiment: GluN2B protein expression by Western blot in primary cortical neuron cells; format: cell-based, mouse
In short: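 Mouse fetal cortical neurons (E17–18) cultured 13–14 days, then treated with BnH compounds for 24 h. GluN2B in RIPA lysates (20 μg/lane) measured by Western blot, normalized to β-actin, and expressed relative to vehicle set to 1 (n ≥ 3).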

[2] = tested on: APP/PS1 mice; experiment: Hippocampal fEPSP I/O curve and LTP in Alzheimer's model mice; format: in vivo, mouse; settings: hippocampus CA1, Os pump ventricular infusion 3 μM
Text: Field recordings were made with a concentric bipolar electrode positioned in the stratum radiatum of the CA1 region using an extracellular glass pipette (3.5 M (2) filled with aCSF. Specifically, fEPSPs were evoked by Schaffer collateral (SC)/commissural fibers with a concentric bipolar electrode placed 200 to 300 μm from the recording pipette. Stimulation was delivered through a bipolar electrode (FHC, Bowdoin, ME, USA) placed in the Schaffer collateral-CA1 (SC). Te SC circuit was visualized using differential interference contrast (DIC) microscopy at 4× magnification and identified by the ability to evoke short and constant latency field excitatory postsynaptic potentials (fEPSPs) at CA1 synapses by SC input stimulation. In all fEPSP experiments, the test stimulation were measured prior to the beginning of all the experiments (30 μA) and a test-pulse stimulation strength that evokes 50% of the maximum fEPSP was used. Baseline synaptic responses was recorded for 30 minutes, and then long-term potentiation (LTP) was induced by high-frequency stimulation (HFS; 100 Hz, 4 trains, 1 s duration, 20 s inter-train interval). […]
Excitatory postsynaptic potential (EPSP) was recorded by the whole-cell patch clamp method using a patch clamp amplifier (molecular devices, USA). […] It was then recorded for 60 minutes (LTP). […]

[3] = target: T1, HDAC4 (Mus musculus, UniProt Q6NZM9); experiment: HDAC4 protein level in barrel cortex by Western blot; format: in vivo; settings: mice barrel cortex
T1 construct: Cortical tissue from mice was prepared according to protocol above then was homogenized and lysed for protein extraction; from tissue; host or cells: barrel cortex of C57BL/6J mice
T1 sequence (Q6NZM9 whole entry): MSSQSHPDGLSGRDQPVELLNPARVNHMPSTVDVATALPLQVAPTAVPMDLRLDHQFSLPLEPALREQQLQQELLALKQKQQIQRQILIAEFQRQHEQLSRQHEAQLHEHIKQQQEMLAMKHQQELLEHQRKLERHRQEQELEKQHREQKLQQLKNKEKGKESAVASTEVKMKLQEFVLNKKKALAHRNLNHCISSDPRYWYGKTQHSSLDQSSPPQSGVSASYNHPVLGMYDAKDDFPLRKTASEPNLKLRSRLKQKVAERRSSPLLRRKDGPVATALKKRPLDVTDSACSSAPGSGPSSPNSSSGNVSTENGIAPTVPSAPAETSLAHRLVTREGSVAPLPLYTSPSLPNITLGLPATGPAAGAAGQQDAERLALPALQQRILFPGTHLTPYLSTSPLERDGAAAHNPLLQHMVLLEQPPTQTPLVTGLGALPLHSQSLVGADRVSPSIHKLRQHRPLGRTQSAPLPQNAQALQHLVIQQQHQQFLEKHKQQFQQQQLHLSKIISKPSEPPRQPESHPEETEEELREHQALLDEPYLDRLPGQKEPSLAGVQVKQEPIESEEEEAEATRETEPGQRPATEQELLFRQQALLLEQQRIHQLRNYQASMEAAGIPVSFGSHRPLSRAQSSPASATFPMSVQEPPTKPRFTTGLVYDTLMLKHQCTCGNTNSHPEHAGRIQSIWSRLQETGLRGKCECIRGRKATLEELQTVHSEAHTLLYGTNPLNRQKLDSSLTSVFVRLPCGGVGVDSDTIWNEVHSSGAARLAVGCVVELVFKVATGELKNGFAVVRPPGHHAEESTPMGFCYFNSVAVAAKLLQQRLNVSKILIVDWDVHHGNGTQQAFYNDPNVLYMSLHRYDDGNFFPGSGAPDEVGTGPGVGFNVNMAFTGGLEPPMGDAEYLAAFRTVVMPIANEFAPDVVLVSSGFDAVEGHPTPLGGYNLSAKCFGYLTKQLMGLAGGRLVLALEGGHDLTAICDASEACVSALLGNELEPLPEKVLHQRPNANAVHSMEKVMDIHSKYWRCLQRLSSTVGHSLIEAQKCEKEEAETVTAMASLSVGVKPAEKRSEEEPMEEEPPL

- HDAC4 protein expression ([3]; intraperitoneal administration): significantly suppressed
- HDAC4 protein expression ([3]; oral administration): significantly suppressed
- duration of the inhibitory effect on HDAC4 protein expression ([3]; oral and intraperitoneal administration): ≥ 10 days
SMILES: C[C@H]1CC[C@@H](C(=O)O)CN1C(=O)Cc1ccc(-c2cncnc2)cc1 [BnH12003, (3R,6S)-6-methyl-1-(2-(4-(pyrimidin-5-yl)phenyl)acetyl) piperidine-3-carboxylic acid]
- GluN2B expression effect (in words) ([1]; compared to vehicle / other compounds, Table 5): excellent effects
- Western blot results Mean (GluN2B expression) ([1]; relative value, vehicle set to 1, primary cortical neurons treated for 24 hours): 2.141
- I/O curve of field EPSP (synaptic efficacy) [2]: synaptic efficacy was increased
- LTP of EPSP, excitatory SC pathway [2]: significantly increased
